Values of other authors as cited in patent US20080075681A1, “Method and composition for permanently shaping hair” (priority 2006, published 2008).

Details: compared to N-methylmercaptoacetamide and N-hydroxyethylmercaptoacetamide; EP 0969791 B1

O=C(CS)NCCCO [N-(3′-hydroxypropyl)-2-mercapto-acetamide]
sensitization rates: substantially lower
